{"source": "paper PMC5321741", "about": "“Arylmethylamino steroids as antiparasitic agents” (Nature Communications, 2017)", "key": {"[1]": {"tested_on": "P. berghei GFP ANKA malaria strain", "experiment": "P. berghei mouse model (Peter's test)", "format": "in vivo, Plasmodium berghei in NMRI mice", "description": "The animal experiments described here were performed at the Swiss Tropical and Public Health Institute (Swiss TPH, Basel, Switzerland), they were approved by the Swiss Cantonal Authorities (‘Kantonales Veterinäramt Basel Stadt') adhering to local and national regulations of laboratory animal welfare in Switzerland. The best compounds were tested in the murine P. berghei model essentially as described. The infection was initiated at day 0 with the P. berghei GFP ANKA malaria strain (donation from AP Waters and CJ Janse, Leiden University). From donor mice (female NMRI mice, 18–20 grams (about 3 weeks) from Charles River Germany) with ∼30% parasitaemia, heparinized blood was taken and diluted in physiological saline to 10^8 parasitized erythrocytes/ml. An aliquot (0.2 ml) of this suspension was injected intravenously into experimental and control groups of mice (female NMRI mice, 18–20 grams (about 3 weeks) from Charles River Germany). Usually, in untreated control mice parasitaemia rose regularly to ∼30% by day 3 post-infection. Control mice died between days 6 and 7 post infection. In the experiments described here, however, control animals (n=5) were killed on day 4 post infection for ethical reasons.\nThe steroid compounds were prepared at an appropriate concentration as a solution/suspension in Tween 80/alcohol (7:3, Tween 80 and absolute ethanol, respectively), followed by a 10x dilution in water. […] The route of administration was i.p., p.o., s.c. in a volume of 10 ml kg^−1.\nThe degree of infection (parasitaemia expressed in % of infected erythrocytes) was determined by FACS analysis on day 4 (96 h post infection). The difference of the mean infection rate of the control group (=100%) to the test group was calculated and expressed as a percent reduction. For example, activity determination with a mean of 2% parasitaemia in treated mice and a mean of 40% parasitaemia in the control animals is calculated as follows: (40−2%)/40% × 100=95% activity. The survival time in days was recorded up to 30 days after infection. A compound was considered curative if the animal survived to day 30 after infection with no detectable parasites (confirmed by light microscopy)."}, "in vivo": {"experiment": "in vivo", "parameters": "species or system C57BL/6 mice", "details": "C57BL/6, mouse", "description": "The compound was applied at an accumulative dose of 100 mg kg^−1 (per os (p.o.). as well as intraperitoneally (i.p.)). The first application was 5 mg kg^−1, 2 h later 15 mg kg^−1, 2 h later 30 mg kg^−1 and again 2 h later 50 mg kg^−1. […] Moreover, we performed pharmacokinetics studies in mice, dosing i.v., i.p. and p.o. (Supplementary Table 5). […] In contrast, high exposure and sustained levels of ∼2 μM were obtained after i.p. dosing at 100 mg kg^−1.\nParameter (n=3/time point)\nSupplementary Table 5. Mouse pharmacokinetics of compound 1o."}, "[2]": {"details": "4x 100 mg/kg i.p., recorded up to 30 days"}, "[3]": {"details": "4x 100 mg/kg p.o., recorded up to 30 days"}}, "note": "Values joined by “and” are separate entries in the source; they are usually repeats but may differ in a detail not shown here. Identical values can stand only once.", "data": [{"molecule": "COc1ccc2c(c1)CCC1C2CC[C@@]2(C)C1CC[C@H]2NCc1cc2ccccc2cc1O", "note": "(stereo partly drawn) [1o]", "values": [{"measurement": "% activity (reduction of parasitaemia)", "setting": "[1]; 1x 100 mg/kg p.o.", "result": 98, "unit": "%"}, {"measurement": "% of control", "setting": "[1]; 1x 100 mg/kg p.o.", "result": 1.5, "unit": "%"}, {"measurement": "Mouse survival in days, Average", "setting": "[1]; 1x 100 mg/kg p.o.", "result": 13, "unit": "days"}, {"measurement": "Mouse survival in days, individual mice M1-M3", "setting": "[1]; 1x 100 mg/kg p.o.", "result": "14 days (2×) and 11 days"}, {"measurement": "Parasitized RBC over 100, Average", "setting": "[1]; 1x 100 mg/kg p.o.", "result": 0.47}, {"measurement": "Parasitized RBC over 100, individual mice M1-M3", "setting": "[1]; 1x 100 mg/kg p.o.", "result": "0.30 and 0.60 and 0.50"}, {"measurement": "Parasitized RBC after 30 d (microscope), individual mice", "setting": "[1]; 4x 100 mg/kg i.p.", "result": 0.0}, {"measurement": "% activity (reduction of parasitaemia)", "setting": "[1]; 4x 100 mg/kg i.p., day 4", "result": 99.8, "unit": "%"}, {"measurement": "% of control", "setting": "[1]; 4x 100 mg/kg i.p., day 4", "result": 0.17, "unit": "%"}, {"measurement": "Parasitized RBC over 100, Average", "setting": "[1]; 4x 100 mg/kg i.p., day 4", "result": 0.10}, {"measurement": "Parasitized RBC over 100, individual mice M1-M3", "setting": "[1]; 4x 100 mg/kg i.p., day 4", "result": 0.10}, {"measurement": "Mouse survival in days, Average", "setting": "[1]; [2]", "result": "> 30", "unit": "days"}, {"measurement": "Mouse survival in days, individual mice M1-M3", "setting": "[1]; [2]", "result": 30, "unit": "days"}, {"measurement": "% activity (reduction of parasitaemia)", "setting": "[1]; 4x 100 mg/kg p.o.", "result": 99.8, "unit": "%"}, {"measurement": "% of control", "setting": "[1]; 4x 100 mg/kg p.o.", "result": 0.22, "unit": "%"}, {"measurement": "Parasitized RBC after 30 d (microscope), individual mice", "setting": "[1]; 4x 100 mg/kg p.o.", "result": 0.0}, {"measurement": "Parasitized RBC over 100, Average", "setting": "[1]; 4x 100 mg/kg p.o.", "result": 0.13}, {"measurement": "Parasitized RBC over 100, individual mice M1-M3", "setting": "[1]; 4x 100 mg/kg p.o.", "result": "0.00 and 0.30 and 0.10"}, {"measurement": "Mouse survival in days, Average", "setting": "[1]; [3]", "result": 27, "unit": "days"}, {"measurement": "Mouse survival in days, individual mice M1-M3", "setting": "[1]; [3]", "result": "30 days (2×) and 20 days"}, {"measurement": "cure of mice", "setting": "[1]; 4 × 100 mg kg−1 i.p.", "result": "all mice treated were cured"}, {"measurement": "cure of mice", "setting": "[1]; 4 × 100 mg kg−1 oral", "result": "two thirds of the animals were cured"}, {"measurement": "AUC(0-t)", "setting": "in vivo; ip, 100 mg/kg", "result": 13000, "unit": "ng·h/mL"}, {"measurement": "Cmax", "setting": "in vivo; ip, 100 mg/kg", "result": 850, "unit": "ng/mL"}, {"measurement": "Tmax", "setting": "in vivo; ip, 100 mg/kg", "result": 3, "unit": "h"}, {"measurement": "bioavailability", "setting": "in vivo; ip, 100 mg/kg", "result": 24, "unit": "%"}, {"measurement": "half-life", "setting": "in vivo; ip, 100 mg/kg", "result": "> 8", "unit": "h"}, {"measurement": "AUC(0-t)", "setting": "in vivo; iv, 1 mg/kg", "result": 567, "unit": "ng·h/mL"}, {"measurement": "Vd", "setting": "in vivo; iv, 1 mg/kg", "result": 6.4, "unit": "L/kg"}, {"measurement": "clearance", "setting": "in vivo; iv, 1 mg/kg", "result": 29.6, "unit": "mL/min/kg"}, {"measurement": "half-life", "setting": "in vivo; iv, 1 mg/kg", "result": "> 8", "unit": "h"}, {"measurement": "AUC(0-t)", "setting": "in vivo; po, 100 mg/kg", "result": 622, "unit": "ng·h/mL"}, {"measurement": "Cmax", "setting": "in vivo; po, 100 mg/kg", "result": 43, "unit": "ng/mL"}, {"measurement": "Tmax", "setting": "in vivo; po, 100 mg/kg", "result": 8.25, "unit": "h"}, {"measurement": "bioavailability", "setting": "in vivo; po, 100 mg/kg", "result": "< 5", "unit": "%"}, {"measurement": "half-life", "setting": "in vivo; po, 100 mg/kg", "result": "> 8", "unit": "h"}]}]}
